Where two headings read alike, the source gives them in different places.
What was measured:
[1] = test system: Pseudomonas Strain 08132; test: Etest, Pseudomonas Strain 08132; format: cell-based; settings: booster 1 mg/L in agar, Tween/water
Source text: (§1) The corresponding tests are made based on the usual MIC test: the Etest® (Biomerieux) strip is deposited onto the surface of a seeded agar medium in which the booster has been incorporated. This test enables solvent effect risks, that is a possible interaction with the solvent used in vitro, to be minimised.
(§2) The control corresponds to the test made without cineol. A control is made in each solvent tested: distilled water, Tween/water and DMSO.
(§3) ED control=antibiotic alone in distilled water
(§4) DMSO control=antibiotic alone in DMSO
(§5) TE control=antibiotic alone in Tween® 80

[2] = test system: E. Coli Strain 08138; test: Etest, E. Coli Strain 08138; format: cell-based; settings: for MIC: Escherichia coli, read-out: MIC of Pipera tazo, Strain 08138; for MIC of Cefoxitine / MIC of Tigecycline: Strain 08138
Source text: as §1, §2, §3, §4, §5

[3] = test system: Pseudomonas Strain 08131; test: Etest, Pseudomonas Strain 08131; format: cell-based; settings: for MIC: Pseudomonas, STRAIN08131, Strain 08131, read-out: MIC of Pipera tazo; for MIC of Meropenem: Strain 08131
Source text: as §1, §2, §3, §4, §5

[4] = test system: Strain 10168, methicillin resistant S. aureus (MRSA); test: Resistance test (resistant mutants), Strain 10168; format: cell-based; settings: MRSA, text after Table 16
Method: After 48 h incubation, the presence or absence of colonies likely to be resistant mutants is observed.
ED control or DMSO=only distilled water or DMSO is added
Ciprofloxacine DMSO: addition of Ciprofloxacine in DMSO

[5] = test system: MSSA 8237; test: Etest, staphylococci MSSA 8237; format: cell-based; settings: for MIC: Staphylococcus aureus, MSSA
Source text: as §1, §2, §3, §4, §5

[6] = test system: MRSA 10178; test: Etest, staphylococci MRSA 10178; format: cell-based; settings: MRSA 10178
Source text: as §1, §2, §3, §4, §5

[7] = test system: candidas; test: MIC measurement (dilution test) on yeast strains; format: cell-based, Candida; design: key to MIC 90 gain / MIC 50 gain: gain = MIC of antifungal alone / MIC of antifungal + booster; settings: Sertaconazole with booster, solvent DMSO
Source text: Inhibitory minimum concentration measurement tests are made in a solid agar medium according to international standards in force (CLSI M7-A9 Jan 12 standards): dispersion of the compounds to be tested in a Mueller Hinton gelose. An adaptation relating to the hydrophobicity of compounds and compositions is however necessary to disperse them in the medium: dilution of the compounds in a solvent. The compounds and compositions incorporated in the agar medium can be diluted beforehand in one or more solvents (Tween® 80 diluted with water, Tween® 80 diluted with […], DMSO diluted with water). The strains are deposited onto the agar surface with a steers apparatus. In the examples, different dissolution methods for products are tested in parallel to circumvent the problems of water/solvent distribution coefficient of the molecules (antimicrobial and potentiator) whereas the bacteria grow only in the aqueous phase. The technical requirement will not intervene in in vivo tests. The same dilution methods can be implemented in a liquid medium (microplates and tubes). The same methodology is implemented with fungi. […] MIC measurement: the minimum inhibitory concentration measurement tests are made in an agar solid medium according to international standards in force (CLSI standards), according to the previously defined protocol. […] The booster contribution as compared with the MIC of the antibiotic alone is expressed in a (MIC ATB)/(MIC ATB+booster) ratio. Thereby, gains are defined: […] The yeast strains tested (n=33) belong to the […] albicans, Candida tropicalis, Candida krusei, Candida parapsilosis, Candida glabrata species.

[8] = booster 1 mg/L in agar, Tween/water
[9] = booster 4 mg/L in agar, Tween/water
[10] = booster 16 mg/L in agar, Tween/water
[11] = MSSA 8237, booster 1 mg/L in agar, DMSO
[12] = MSSA 8237, booster 1 mg/L in agar, Tween/water
[13] = MSSA 8237, booster 4 mg/L in agar, DMSO
[14] = MSSA 8237, booster 4 mg/L in agar, Tween/water
[15] = MSSA 8237, booster 16 mg/L in agar, DMSO
[16] = MSSA 8237, booster 16 mg/L in agar, Tween/water

CC(=O)OCC=Cc1ccccc1 [AC, cinnamyl acetate]
MIC of Meropenem [1]: 8 µg/mL
MIC ([2]; booster 1 mg/L in agar, DMSO): 6 µg/mL
MIC [2, 8]: 2 µg/mL
MIC ([2]; booster 4 mg/L in agar, DMSO): 4 µg/mL
MIC [2, 9]: 2 µg/mL
MIC ([2]; booster 16 mg/L in agar, DMSO): 8 µg/mL
MIC [2, 10]: 2 µg/mL
MIC of Cefoxitine ([2]; booster 1 mg/L in agar, DMSO): 2 µg/mL
MIC of Tigecycline ([2]; booster 1 mg/L in agar, DMSO): 0.38 µg/mL
MIC of Cefoxitine [2, 8]: 2 µg/mL
MIC of Tigecycline [2, 8]: 0.25 µg/mL
MIC of Cefoxitine ([2]; booster 4 mg/L in agar, DMSO): 1.5 µg/mL
MIC of Tigecycline ([2]; booster 4 mg/L in agar, DMSO): 0.38 µg/mL
MIC of Cefoxitine [2, 9]: 1.5 µg/mL
MIC of Tigecycline [2, 9]: 0.19 µg/mL
MIC of Cefoxitine ([2]; booster 16 mg/L in agar, DMSO): 0.5 µg/mL
MIC of Tigecycline ([2]; booster 16 mg/L in agar, DMSO): 0.125 µg/mL
MIC of Cefoxitine [2, 10]: 4 µg/mL
MIC of Tigecycline [2, 10]: 0.19 µg/mL
MIC ([3]; booster 1 mg/L in agar, DMSO): 6 µg/mL
MIC [3, 8]: 6 µg/mL
MIC ([3]; booster 4 mg/L in agar, DMSO): 3 µg/mL
MIC [3, 9]: 3 µg/mL
MIC ([3]; booster 16 mg/L in agar, DMSO): 3 µg/mL
MIC [3, 10]: 3 µg/mL
MIC of Meropenem ([3]; booster 1 mg/L in agar, DMSO): 1.5 µg/mL
MIC of Meropenem [3, 8]: 2 µg/mL
MIC of Meropenem ([3]; booster 4 mg/L in agar, DMSO): 0.75 µg/mL
MIC of Meropenem [3, 9]: 0.5 µg/mL
MIC of Meropenem ([3]; booster 16 mg/L in agar, DMSO): 0.75 µg/mL
MIC of Meropenem [3, 10]: 0.38 µg/mL
occurrence of mutants on addition of the compound to ciprofloxacine [4]: does not cause the occurrence of mutants any longer
MIC of Cefoxitine [5, 11]: 2 µg/mL
MIC of Meropenem [5, 11]: 0.25 µg/mL
MIC of Penicillin G [5, 11]: 0.25 µg/mL
MIC of Cefoxitine [5, 12]: 3 µg/mL
MIC of Meropenem [5, 12]: 0.25 µg/mL
MIC of Penicillin G [5, 12]: 0.5 µg/mL
MIC of Cefoxitine [5, 13]: 3 µg/mL
MIC of Meropenem [5, 13]: 0.19 µg/mL
MIC of Penicillin G [5, 13]: 0.19 µg/mL
MIC of Cefoxitine [5, 14]: 2 µg/mL
MIC of Meropenem [5, 14]: 0.19 µg/mL
MIC of Penicillin G [5, 14]: 0.125 µg/mL
MIC of Cefoxitine [5, 15]: <0.016 µg/mL
MIC of Meropenem [5, 15]: <0.002 µg/mL
MIC of Penicillin G [5, 15]: <0.002 µg/mL
MIC of Cefoxitine [5, 16]: 1.5 µg/mL
MIC of Meropenem [5, 16]: 0.064 µg/mL
MIC of Penicillin G [5, 16]: 0.064 µg/mL
MIC ([5]; MSSA 8237, booster 1 mg/L in agar, DMSO, read-out: MIC of Clindamycine): 0.047 µg/mL
MIC ([5]; MSSA 8237, booster 1 mg/L in agar, Tween/water, read-out: MIC of Clindamycine): 0.047 µg/mL
MIC ([5]; MSSA 8237, booster 4 mg/L in agar, DMSO, read-out: MIC of Clindamycine): 0.047 µg/mL
MIC ([5]; MSSA 8237, booster 4 mg/L in agar, Tween/water, read-out: MIC of Clindamycine): 0.064 µg/mL
MIC ([5]; MSSA 8237, booster 16 mg/L in agar, DMSO, read-out: MIC of Clindamycine): < 0.016 µg/mL
MIC ([5]; MSSA 8237, booster 16 mg/L in agar, Tween/water, read-out: MIC of Clindamycine): 0.125 µg/mL
MIC ([5]; read-out: MIC of Pipera tazo, MSSA 8237, booster 1 mg/L in agar, DMSO): 0.75 µg/mL
MIC ([5]; read-out: MIC of Pipera tazo, MSSA 8237, booster 1 mg/L in agar, Tween/water): 1 µg/mL
MIC ([5]; read-out: MIC of Pipera tazo, MSSA 8237, booster 4 mg/L in agar, DMSO): 0.5 µg/mL
MIC ([5]; read-out: MIC of Pipera tazo, MSSA 8237, booster 4 mg/L in agar, Tween/water): 0.5 µg/mL
MIC ([5]; read-out: MIC of Pipera tazo, MSSA 8237, booster 16 mg/L in agar, Tween/water): 0.38 µg/mL
MIC of Cefoxitine ([6]; booster 1 mg/L in agar, DMSO): 4 µg/mL
MIC of Tigecycline ([6]; booster 1 mg/L in agar, DMSO): 0.125 µg/mL
MIC of Cefoxitine [6, 8]: 4 µg/mL
MIC of Tigecycline [6, 8]: 0.125 µg/mL
MIC of Cefoxitine ([6]; booster 4 mg/L in agar, DMSO): 1 µg/mL
MIC of Tigecycline ([6]; booster 4 mg/L in agar, DMSO): 0.047 µg/mL
MIC of Cefoxitine [6, 9]: 0.75 µg/mL
MIC of Tigecycline [6, 9]: 0.047 µg/mL
MIC of Cefoxitine ([6]; booster 16 mg/L in agar, DMSO): <0.016 µg/mL
MIC of Tigecycline ([6]; booster 16 mg/L in agar, DMSO): <0.016 µg/mL
MIC of Cefoxitine [6, 10]: <0.016 µg/mL
MIC of Tigecycline [6, 10]: <0.016 µg/mL
MIC 50 gain ([7]; ratio 64/100): 0.05
MIC 90 gain ([7]; ratio 64/100): 0.28
MIC 50 gain ([7]; ratio 64/500): 2.00
MIC 90 gain ([7]; ratio 64/500): 1.00

Reference: US10758620B2, “Potentiated antimicrobial agents” (SEPTEOS, priority 2014, dated 2020)
